Experimental data: the supplement of paper PMC10307832

Columns and labels:
Assay in all cases: relative viability (nuclei count vs DMSO), 5 days (fraction); higher = more cells survive
NCI-H1755 = system: NCI-H1755
Summary of the method: (§1)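 Five library-drug doses in √10 steps were combined with a fixed anchor-drug dose, or a single drug was given alone, by pin tool to lung cancer cell lines in 1536-well plates the day after seeding. Nuclei were stained and counted after 5 days. Relative viability is the nuclei count in treated wells over that in vehicle wells, taken as the median of duplicate plates.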

NCI-H1915 = system: NCI-H1915
Summary of the method: as §1

NCI-H1975 = system: NCI-H1975
Summary of the method: as §1

NCI-H2023 = system: NCI-H2023
Summary of the method: as §1

NCI-H2085 = system: NCI-H2085
Summary of the method: as §1

NCI-H2126 = system: NCI-H2126
Summary of the method: as §1

NCI-H3122 = system: NCI-H3122
Summary of the method: as §1

NCI-H322M = system: NCI-H322M
Summary of the method: as §1

NCI-H358 = system: NCI-H358
Summary of the method: as §1

NCI-H441 = system: NCI-H441
Summary of the method: as §1

UMC-11 = system: UMC-11
Summary of the method: as §1

With `CCN(CC)CCCCNc1ncc2cc(-c3cc(OC)cc(OC)c3)c(NC(=O)NC(C)(C)C)nc2n1` + Cc1cc(Nc2cc(N3CCN(C)CC3)nc(Sc3ccc(NC(=O)C4CC4)cc3)n2)n[nH]1 [Tozasertib] (partner 0.1 µM) the relative viability (NCI-H1755; first compound 0.01 µM) was 0.624, the relative viability (NCI-H1755; first compound 0.03162 µM) was 0.61 and the relative viability (NCI-H1755; first compound 0.1 µM) was 0.607. For the same molecule, the relative viability (NCI-H1755; first compound 0.3162 µM) was 0.622, the relative viability (NCI-H1755; first compound 1 µM) was 0.535 and the relative viability (NCI-H1915; first compound 0.01 µM) was 0.464. The relative viability (NCI-H1915; first compound 0.03162 µM) was 0.489, the relative viability (NCI-H1915; first compound 0.1 µM) was 0.48 and the relative viability (NCI-H1915; first compound 0.3162 µM) was 0.461. It also gave a relative viability (NCI-H1915; first compound 1 µM) of 0.348, a relative viability (NCI-H1975; first compound 0.01 µM) of 0.876 and a relative viability (NCI-H1975; first compound 0.03162 µM) of 0.859. The relative viability (NCI-H1975; first compound 0.1 µM) was 1.1, the relative viability (NCI-H1975; first compound 0.3162 µM) was 0.992 and the relative viability (NCI-H1975; first compound 1 µM) was 0.407. For the same molecule, the relative viability (NCI-H2023; first compound 0.01 µM) was 0.323, the relative viability (NCI-H2023; first compound 0.03162 µM) was 0.428 and the relative viability (NCI-H2023; first compound 0.1 µM) was 0.401. For the same molecule, the relative viability (NCI-H2023; first compound 0.3162 µM) was 0.41, the relative viability (NCI-H2023; first compound 1 µM) was 0.222 and the relative viability (NCI-H2085; first compound 0.01 µM) was 0.819. It also gave a relative viability (NCI-H2085; first compound 0.03162 µM) of 0.762, a relative viability (NCI-H2085; first compound 0.1 µM) of 0.823 and a relative viability (NCI-H2085; first compound 0.3162 µM) of 0.729. It also gave a relative viability (NCI-H2085; first compound 1 µM) of 0.639, a relative viability (NCI-H2126; first compound 0.01 µM) of 0.861 and a relative viability (NCI-H2126; first compound 0.03162 µM) of 0.859. For the same molecule, the relative viability (NCI-H2126; first compound 0.1 µM) was 1.1, the relative viability (NCI-H2126; first compound 0.3162 µM) was 0.864 and the relative viability (NCI-H2126; first compound 1 µM) was 0.798. The relative viability (NCI-H3122; first compound 0.01 µM) was 0.559, the relative viability (NCI-H3122; first compound 0.03162 µM) was 0.439 and the relative viability (NCI-H3122; first compound 0.1 µM) was 0.464. The relative viability (NCI-H3122; first compound 0.3162 µM) was 0.326, the relative viability (NCI-H3122; first compound 1 µM) was 0.364 and the relative viability (NCI-H322M; first compound 0.01 µM) was 0.717. For the same molecule, the relative viability (NCI-H322M; first compound 0.03162 µM) was 0.49, the relative viability (NCI-H322M; first compound 0.1 µM) was 0.589 and the relative viability (NCI-H322M; first compound 0.3162 µM) was 0.57. For the same molecule, the relative viability (NCI-H322M; first compound 1 µM) was 0.448, the relative viability (NCI-H358; first compound 0.01 µM) was 0.108 and the relative viability (NCI-H358; first compound 0.03162 µM) was 0.0902. For the same molecule, the relative viability (NCI-H358; first compound 0.1 µM) was 0.115, the relative viability (NCI-H358; first compound 0.3162 µM) was 0.104 and the relative viability (NCI-H358; first compound 1 µM) was 0.101. It also gave a relative viability (NCI-H441; first compound 0.01 µM) of 0.544, a relative viability (NCI-H441; first compound 0.03162 µM) of 0.714 and a relative viability (NCI-H441; first compound 0.1 µM) of 0.821. The relative viability (NCI-H441; first compound 0.3162 µM) was 0.616, the relative viability (NCI-H441; first compound 1 µM) was 0.597 and the relative viability (UMC-11; first compound 0.01 µM) was 0.214. For the same molecule, the relative viability (UMC-11; first compound 0.03162 µM) was 0.203, the relative viability (UMC-11; first compound 0.1 µM) was 0.204 and the relative viability (UMC-11; first compound 0.3162 µM) was 0.195. The relative viability (UMC-11; first compound 1 µM) was 0.196.
